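How tested: cells in 96-well plates exposed to compound for 48 hours at five concentrations. GI50 = concentration required for 50% inhibition of growth. The concentration for full growth arrest is given as TGI.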
Tests used:
Assay in all cases: DTP human tumour cell line panel, 48 h
MOLT-4 leukemia = tested on: MOLT-4 leukemia
CAKI-1 renal = tested on: CAKI-1 renal
A498 renal = tested on: A498 renal
SF-268 CNS = tested on: SF-268 CNS
COLO 205 colon = tested on: COLO 205 colon
U251 CNS = tested on: U251 CNS
BT-549 breast = tested on: BT-549 breast
HS 578T breast = tested on: HS 578T breast
OVCAR-8 ovarian = tested on: OVCAR-8 ovarian
RXF 393 renal = tested on: RXF 393 renal
HCC-2998 colon = tested on: HCC-2998 colon
OVCAR-5 ovarian = tested on: OVCAR-5 ovarian
SK-OV-3 ovarian = tested on: SK-OV-3 ovarian
UO-31 renal = tested on: UO-31 renal
UACC-257 melanoma = tested on: UACC-257 melanoma
NCI/ADR-RES ovarian = tested on: NCI/ADR-RES ovarian
LOX IMVI melanoma = tested on: LOX IMVI melanoma
OVCAR-3 ovarian = tested on: OVCAR-3 ovarian
NCI-H460 lung = tested on: NCI-H460 lung
KM12 colon = tested on: KM12 colon
M14 melanoma = tested on: M14 melanoma
SK-MEL-28 melanoma = tested on: SK-MEL-28 melanoma
MCF7 breast = tested on: MCF7 breast
NCI-H23 lung = tested on: NCI-H23 lung
SF-539 CNS = tested on: SF-539 CNS
MDA-MB-231 breast = tested on: MDA-MB-231 breast
CCRF-CEM leukemia = tested on: CCRF-CEM leukemia
IGROV1 ovarian = tested on: IGROV1 ovarian
SF-295 CNS = tested on: SF-295 CNS
ACHN renal = tested on: ACHN renal
MDA-MB-468 breast = tested on: MDA-MB-468 breast
SNB-19 CNS = tested on: SNB-19 CNS
SK-MEL-2 melanoma = tested on: SK-MEL-2 melanoma
SR leukemia = tested on: SR leukemia
786-0 renal = tested on: 786-0 renal
NCI-H522 lung = tested on: NCI-H522 lung
HOP-92 NSCLC = tested on: HOP-92 NSCLC
UACC-62 melanoma = tested on: UACC-62 melanoma
K-562 leukemia = tested on: K-562 leukemia
MDA-MB-435 = tested on: MDA-MB-435
SN12C renal = tested on: SN12C renal
NCI-H226 lung = tested on: NCI-H226 lung
DU-145 prostate = tested on: DU-145 prostate
EKVX NSCLC = tested on: EKVX NSCLC
A549 NSCLC = tested on: A549 NSCLC
HCT-116 colon = tested on: HCT-116 colon
MALME-3M melanoma = tested on: MALME-3M melanoma
HCT-15 colon = tested on: HCT-15 colon
OVCAR-4 ovarian = tested on: OVCAR-4 ovarian
HT29 colon = tested on: HT29 colon
SW-620 colon = tested on: SW-620 colon
SK-MEL-5 melanoma = tested on: SK-MEL-5 melanoma
RPMI-8226 leukemia = tested on: RPMI-8226 leukemia
HL-60(TB) leukemia = tested on: HL-60(TB) leukemia
PC-3 prostate = tested on: PC-3 prostate
T-47D breast = tested on: T-47D breast
HOP-62 NSCLC = tested on: HOP-62 NSCLC
TK-10 renal = tested on: TK-10 renal

## Cc1cc2c(c(O)c1Br)-c1ncoc1C(=O)[C@]1(C)CC[C@H](C(C)C)[C@H]21
MOLT-4 leukemia
  GI50: 3.18 µM
  TGI: 14.9 µM
CAKI-1 renal
  GI50: 4.73 µM
  TGI: 33.6 µM
A498 renal
  GI50: > 100 µM
  TGI: > 100 µM
SF-268 CNS
  GI50: 4.27 µM
  TGI: 34.3 µM
COLO 205 colon
  GI50: 2.61 µM
  TGI: 10.3 µM
U251 CNS
  GI50: 4.34 µM
  TGI: 17.1 µM
BT-549 breast
  GI50: 4.64 µM
  TGI: 17.1 µM
HS 578T breast
  GI50: 5.34 µM
  TGI: > 100 µM
OVCAR-8 ovarian
  GI50: 5.45 µM
  TGI: 22.4 µM
RXF 393 renal
  GI50: 4.16 µM
  TGI: 17.7 µM
HCC-2998 colon
  GI50: 4.22 µM
  TGI: 17.7 µM
OVCAR-5 ovarian
  GI50: 5.36 µM
  TGI: 23.1 µM
SK-OV-3 ovarian
  GI50: 6.72 µM
  TGI: > 100 µM
UO-31 renal
  GI50: 5 µM
  TGI: 24.8 µM
UACC-257 melanoma
  GI50: 3.58 µM
  TGI: 18.7 µM
NCI/ADR-RES ovarian
  GI50: 2.82 µM
  TGI: 9.19 µM
LOX IMVI melanoma
  GI50: 3.71 µM
  TGI: 14.5 µM
OVCAR-3 ovarian
  GI50: 3.83 µM
  TGI: 13.6 µM
NCI-H460 lung
  GI50: 3.33 µM
  TGI: 14.5 µM
KM12 colon
  GI50: 3.49 µM
  TGI: 35.6 µM
M14 melanoma
  GI50: 2.85 µM
  TGI: 14 µM
SK-MEL-28 melanoma
  GI50: 4.37 µM
  TGI: 18.4 µM
MCF7 breast
  GI50: 3.45 µM
  TGI: 15.2 µM
NCI-H23 lung
  GI50: 4.64 µM
  TGI: 47.3 µM
SF-539 CNS
  GI50: 4.08 µM
  TGI: 14.9 µM
MDA-MB-231 breast
  GI50: 4.36 µM
  TGI: 18.8 µM
CCRF-CEM leukemia
  GI50: 4.14 µM
  TGI: 27.1 µM
IGROV1 ovarian
  GI50: 4.42 µM
  TGI: 82.4 µM
SF-295 CNS
  GI50: 3.31 µM
  TGI: 18 µM
ACHN renal
  GI50: 10.1 µM
  TGI: 34 µM
MDA-MB-468 breast
  GI50: 2.14 µM
  TGI: 6.63 µM
SNB-19 CNS
  GI50: 7.35 µM
  TGI: > 100 µM
SK-MEL-2 melanoma
  GI50: 2.51 µM
  TGI: 8.15 µM
SR leukemia
  GI50: 2.14 µM
  TGI: 7.25 µM
786-0 renal
  GI50: 7.18 µM
  TGI: 21.9 µM
NCI-H522 lung
  GI50: 2.18 µM
  TGI: 6.24 µM
HOP-92 NSCLC
  GI50: 1.03 µM
  TGI: 5.99 µM
UACC-62 melanoma
  GI50: 2.46 µM
  TGI: 8.58 µM
K-562 leukemia
  GI50: 2.93 µM
  TGI: 11.6 µM
MDA-MB-435
  GI50: 2.07 µM
  TGI: 5.23 µM
SN12C renal
  GI50: 3.19 µM
  TGI: 12.9 µM
NCI-H226 lung
  GI50: 5.88 µM
  TGI: 22.1 µM
DU-145 prostate
  GI50: 5 µM
  TGI: 21.2 µM
EKVX NSCLC
  GI50: 6.77 µM
  TGI: 28.6 µM
A549 NSCLC
  GI50: 4.33 µM
  TGI: 29.6 µM
HCT-116 colon
  GI50: 3.17 µM
  TGI: 13.8 µM
MALME-3M melanoma
  GI50: 2.61 µM
  TGI: 11.8 µM
HCT-15 colon
  GI50: 2.62 µM
  TGI: 11.8 µM
OVCAR-4 ovarian
  GI50: 4.1 µM
  TGI: 33.7 µM
HT29 colon
  GI50: 2.77 µM
  TGI: 16 µM
SW-620 colon
  GI50: 3.38 µM
  TGI: 17 µM
SK-MEL-5 melanoma
  GI50: 2.95 µM
  TGI: 10.3 µM
RPMI-8226 leukemia
  GI50: 3.35 µM
  TGI: 15.7 µM
HL-60(TB) leukemia
  GI50: 2.19 µM
  TGI: 6.69 µM
PC-3 prostate
  GI50: 3.1 µM
  TGI: 20.5 µM
T-47D breast
  GI50: 2.89 µM
  TGI: 21.2 µM
HOP-62 NSCLC
  GI50: 4.45 µM
  TGI: 21.7 µM
TK-10 renal
  GI50: 9.26 µM
  TGI: 74.3 µM

From PubChem BioAssay (NCI)
